Laboratory results published in US9371265B2, “Compositions and methods related to inhibitors of JAK kinase” (EP PHARMA, INC., priority 2012, dated 2016).

What was measured:
JNK1/2 = assay: Phospho-JNK1/2 in SU-DHL-1 cells (Luminex multiplex); assay type: cell-based, human; conditions: 24 hours, dose-dependent
Protocol: FIGS. 8A-8F. Effect of EP009 on ALCL cells is mediated through selective activation of ERK1/2 and JNK1/2 stress signaling pathways, and inhibition of p70 S6 kinase growth signaling pathways. SU-DHL-1 cells were treated with vehicle (PBS) or increasing amounts of EP009 (0-50 μM) for 24 hours. Cells were then lysed, clarified, and subjected to Luminex multiplex analysis to detect phosphorylated (A) ERK1/2, (B) JNK1/2, (C) p70 S6 kinase, (D) IκBα, (E) CREB, and (F) p38. Values represent mean fluorescence intensity (MFI) normalized to corresponding GAPDH MFI, while error bars represent the standard deviation (n=2). Representative data from two independent experiments are shown. Statistical significance was determined using Student's t-test. (*, p<0.05).
The MILLIPLEX MAP 8-plex Multi-Pathway Signaling Phosphoprotein kit (Millipore) was used to detect phosphorylated ERK1/2 (Thr185/Tyr187), STAT3 (Ser727), JNK1/2 (Thr183/Tyr185), p70 S6 kinase (Thr412), IκBα (Ser32), STAT5A/B (Tyr694/699), CREB (Ser133), and p38 (Thr180/Tyr182). The MILLIPLEX MAP 5-plex STAT Phosphoprotein kit (Millipore) was used to detect phosphorylated STAT1 (Tyr701), STAT2 (Tyr690), STAT3 (Tyr705), STAT5A/B (Tyr694/699), and STAT6 (Tyr641). The MILLIPLEX MAP Human Apoptosis 3-plex kit (Millipore) was used to detect cleaved PARP, cleaved Caspase 3, and total GAPDH for protein normalization.

PIM1 = PIM1 (Homo sapiens, UniProt P11309); assay: Kinase panel: PIM1; assay type: biochemical; conditions: 10 μM EP009
Protocol: (§1) Achieving JAK3 selectivity remains a significant challenge in the development of new small molecules for the treatment of cancer and immune-derived diseases. As such, the inventors employed cell-based screening assays of small-molecule libraries based upon the chemical scaffold of the established JAK3 inhibitor NC1153 (Stepkowski et al., J Immunol. (2005), 175(7):4236-4246) EP009 (FIG. 2A) was selected as a lead compound due to improved intrinsic stability (>95% purity in various solvents at 37° C. for 24 hours; FIG. 3) and high-degree of JAK3 selectivity. To test JAK3 versus JAK2 specificity of EP009, the IL-2/JAK3-dependent Kit225, and IL-3/JAK2-dependent BaF/3 cell lines were used. Kit225 and BaF/3 cells growing in the presence of IL-2 or IL-3, respectively, were treated with ascending concentrations of EP009 for 12 hours and cellular JAK3 and JAK2 tyrosine phosphorylation levels detected by Western blot analysis (FIGS. 2B and 2C). Following densitometric analysis, EP009 was determined to dose-dependently reduce IL-2-mediated JAK3 tyrosine phosphorylation with a cellular 50% inhibitory concentration (IC50) between 10 and 20 μM (FIG. 2B). […] To globally evaluate specificity, the inhibitory activity of EP009 was measured against a panel of protein kinases distributed throughout the kinome using the scanEDGE profiling service (KINOMEscan). […]

PIM2 = PIM2 (Homo sapiens, UniProt Q9P1W9); assay: Kinase panel: PIM2; assay type: biochemical; conditions: 10 μM EP009
Protocol: as §1

MAPKAPK2 = MAPKAPK2 (Homo sapiens, UniProt P49137); assay: Kinase panel: MAPKAPK2; assay type: biochemical; conditions: 10 μM EP009
Protocol: as §1

ACVR1B = ACVR1B (Homo sapiens, UniProt P36896); assay: Kinase panel: ACVR1B; assay type: biochemical; conditions: 10 μM EP009
Protocol: as §1

MAP3K4 = MAP3K4 (Homo sapiens, UniProt Q9Y6R4); assay: Kinase panel: MAP3K4; assay type: biochemical; conditions: 10 μM EP009
Protocol: as §1

PIK3CA = PIK3CA (Homo sapiens, UniProt P42336); assay: Kinase panel: PIK3CA; assay type: biochemical; conditions: 10 μM EP009
Protocol: as §1

[1] = LD50 / acute safety, intravenous tail vein injection; assay type: in vivo; conditions: mice, IV bolus
Protocol: Mice were dosed using EP009 (-P) by intravenous tail vein injection. 25 mice were divided into groups of 5 and given doses of 2.0 mg (group B), 4.0 mg (group C), 6.0 mg (group D), and 8.0 mg (group E) of EP009, along with a placebo control (group A), in a volume of […]. This corresponded to doses of 100, 200, 300, 400 mg/kg, and 0 mg/kg (control). Dosing began at 3:15 p.m., and began with the highest dose group, followed by 6, 4, 2, and the control group. Dosing took around 15 minutes.

MARK3 = MARK3 (Homo sapiens, UniProt P27448); assay: Kinase panel: MARK3; assay type: biochemical; conditions: 10 μM EP009
Protocol: as §1

PDGFRB = PDGFRB (Homo sapiens, UniProt P09619); assay: Kinase panel: PDGFRB; assay type: biochemical; conditions: 10 μM EP009
Protocol: as §1

Sequence of PDGFRB (P09619 33-1106): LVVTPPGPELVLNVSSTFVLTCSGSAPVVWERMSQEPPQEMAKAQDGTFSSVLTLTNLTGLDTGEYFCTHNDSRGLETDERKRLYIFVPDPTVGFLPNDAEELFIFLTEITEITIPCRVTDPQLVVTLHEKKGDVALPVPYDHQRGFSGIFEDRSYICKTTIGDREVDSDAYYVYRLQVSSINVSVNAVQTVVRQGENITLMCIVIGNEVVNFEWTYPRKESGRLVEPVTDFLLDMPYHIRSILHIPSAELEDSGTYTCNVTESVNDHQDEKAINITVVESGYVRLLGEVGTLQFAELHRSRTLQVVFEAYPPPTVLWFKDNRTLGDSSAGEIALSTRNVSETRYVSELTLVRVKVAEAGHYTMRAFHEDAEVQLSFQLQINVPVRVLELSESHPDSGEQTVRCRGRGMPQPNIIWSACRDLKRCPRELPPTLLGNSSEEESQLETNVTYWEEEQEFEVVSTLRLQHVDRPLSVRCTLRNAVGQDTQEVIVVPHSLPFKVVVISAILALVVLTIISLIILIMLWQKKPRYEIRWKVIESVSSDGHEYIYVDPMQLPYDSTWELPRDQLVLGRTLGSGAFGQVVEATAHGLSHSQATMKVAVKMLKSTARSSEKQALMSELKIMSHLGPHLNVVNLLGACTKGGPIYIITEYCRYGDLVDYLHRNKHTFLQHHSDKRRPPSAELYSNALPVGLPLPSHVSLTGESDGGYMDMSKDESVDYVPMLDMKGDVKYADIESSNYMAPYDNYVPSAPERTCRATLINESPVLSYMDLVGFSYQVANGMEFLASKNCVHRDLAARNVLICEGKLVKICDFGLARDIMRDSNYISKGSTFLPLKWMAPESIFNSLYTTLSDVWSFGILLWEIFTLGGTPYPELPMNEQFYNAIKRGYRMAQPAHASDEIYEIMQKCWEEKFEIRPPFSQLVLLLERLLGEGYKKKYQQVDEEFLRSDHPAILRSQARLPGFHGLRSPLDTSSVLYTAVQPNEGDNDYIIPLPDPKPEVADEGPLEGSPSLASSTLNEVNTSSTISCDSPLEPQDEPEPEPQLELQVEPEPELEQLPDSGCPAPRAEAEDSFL
Sequence of ACVR1B (P36896 24-505): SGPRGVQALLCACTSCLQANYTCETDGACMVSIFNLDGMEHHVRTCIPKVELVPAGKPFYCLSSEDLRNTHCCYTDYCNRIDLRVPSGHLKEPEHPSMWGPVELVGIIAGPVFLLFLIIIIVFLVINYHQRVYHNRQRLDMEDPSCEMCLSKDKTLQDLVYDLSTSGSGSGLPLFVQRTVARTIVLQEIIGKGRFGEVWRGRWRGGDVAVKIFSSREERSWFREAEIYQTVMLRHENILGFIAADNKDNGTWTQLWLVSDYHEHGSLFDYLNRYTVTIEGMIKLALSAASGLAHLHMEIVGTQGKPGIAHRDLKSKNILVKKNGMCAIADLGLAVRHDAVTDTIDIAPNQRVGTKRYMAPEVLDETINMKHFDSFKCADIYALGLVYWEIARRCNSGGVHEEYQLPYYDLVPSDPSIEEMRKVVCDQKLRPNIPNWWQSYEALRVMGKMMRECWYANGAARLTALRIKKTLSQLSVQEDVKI
Sequence of MARK3 (P27448 whole entry): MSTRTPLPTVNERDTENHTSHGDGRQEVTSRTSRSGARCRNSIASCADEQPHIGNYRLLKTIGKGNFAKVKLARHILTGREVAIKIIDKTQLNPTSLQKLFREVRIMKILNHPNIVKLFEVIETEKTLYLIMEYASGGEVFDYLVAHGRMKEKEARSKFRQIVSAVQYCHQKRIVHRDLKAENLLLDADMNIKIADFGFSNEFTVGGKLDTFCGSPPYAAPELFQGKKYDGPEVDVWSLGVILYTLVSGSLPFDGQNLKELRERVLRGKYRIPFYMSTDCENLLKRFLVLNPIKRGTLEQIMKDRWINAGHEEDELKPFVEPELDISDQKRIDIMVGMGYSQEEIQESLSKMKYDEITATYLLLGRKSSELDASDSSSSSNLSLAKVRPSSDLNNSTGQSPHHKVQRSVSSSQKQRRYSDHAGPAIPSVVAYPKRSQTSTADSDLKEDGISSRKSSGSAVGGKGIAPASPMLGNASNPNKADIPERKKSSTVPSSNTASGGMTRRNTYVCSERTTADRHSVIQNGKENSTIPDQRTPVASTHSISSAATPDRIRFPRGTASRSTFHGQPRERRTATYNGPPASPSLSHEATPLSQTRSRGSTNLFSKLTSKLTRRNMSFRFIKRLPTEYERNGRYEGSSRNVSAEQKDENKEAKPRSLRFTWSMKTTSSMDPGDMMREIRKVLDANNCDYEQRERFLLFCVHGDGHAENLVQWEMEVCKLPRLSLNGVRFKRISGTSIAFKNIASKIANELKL
Sequence of PIM1 (P11309 whole entry): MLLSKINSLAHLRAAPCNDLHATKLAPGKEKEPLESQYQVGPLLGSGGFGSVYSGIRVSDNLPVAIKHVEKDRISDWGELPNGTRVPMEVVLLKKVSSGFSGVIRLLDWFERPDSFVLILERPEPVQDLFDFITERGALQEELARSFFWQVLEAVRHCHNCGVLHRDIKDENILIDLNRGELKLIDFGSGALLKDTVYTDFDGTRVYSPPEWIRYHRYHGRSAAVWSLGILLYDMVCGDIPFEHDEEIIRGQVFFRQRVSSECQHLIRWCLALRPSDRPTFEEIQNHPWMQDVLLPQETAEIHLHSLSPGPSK
Sequence of PIM2 (Q9P1W9 whole entry): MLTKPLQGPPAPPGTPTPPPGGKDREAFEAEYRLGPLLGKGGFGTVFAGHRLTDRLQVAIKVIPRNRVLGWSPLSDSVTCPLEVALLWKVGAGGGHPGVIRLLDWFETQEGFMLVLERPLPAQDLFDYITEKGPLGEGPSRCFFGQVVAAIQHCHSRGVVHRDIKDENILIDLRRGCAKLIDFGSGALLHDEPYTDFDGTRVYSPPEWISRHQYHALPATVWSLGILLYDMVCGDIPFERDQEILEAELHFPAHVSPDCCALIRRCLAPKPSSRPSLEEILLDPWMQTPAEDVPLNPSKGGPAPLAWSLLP
Sequence of MAP3K4 (Q9Y6R4 whole entry): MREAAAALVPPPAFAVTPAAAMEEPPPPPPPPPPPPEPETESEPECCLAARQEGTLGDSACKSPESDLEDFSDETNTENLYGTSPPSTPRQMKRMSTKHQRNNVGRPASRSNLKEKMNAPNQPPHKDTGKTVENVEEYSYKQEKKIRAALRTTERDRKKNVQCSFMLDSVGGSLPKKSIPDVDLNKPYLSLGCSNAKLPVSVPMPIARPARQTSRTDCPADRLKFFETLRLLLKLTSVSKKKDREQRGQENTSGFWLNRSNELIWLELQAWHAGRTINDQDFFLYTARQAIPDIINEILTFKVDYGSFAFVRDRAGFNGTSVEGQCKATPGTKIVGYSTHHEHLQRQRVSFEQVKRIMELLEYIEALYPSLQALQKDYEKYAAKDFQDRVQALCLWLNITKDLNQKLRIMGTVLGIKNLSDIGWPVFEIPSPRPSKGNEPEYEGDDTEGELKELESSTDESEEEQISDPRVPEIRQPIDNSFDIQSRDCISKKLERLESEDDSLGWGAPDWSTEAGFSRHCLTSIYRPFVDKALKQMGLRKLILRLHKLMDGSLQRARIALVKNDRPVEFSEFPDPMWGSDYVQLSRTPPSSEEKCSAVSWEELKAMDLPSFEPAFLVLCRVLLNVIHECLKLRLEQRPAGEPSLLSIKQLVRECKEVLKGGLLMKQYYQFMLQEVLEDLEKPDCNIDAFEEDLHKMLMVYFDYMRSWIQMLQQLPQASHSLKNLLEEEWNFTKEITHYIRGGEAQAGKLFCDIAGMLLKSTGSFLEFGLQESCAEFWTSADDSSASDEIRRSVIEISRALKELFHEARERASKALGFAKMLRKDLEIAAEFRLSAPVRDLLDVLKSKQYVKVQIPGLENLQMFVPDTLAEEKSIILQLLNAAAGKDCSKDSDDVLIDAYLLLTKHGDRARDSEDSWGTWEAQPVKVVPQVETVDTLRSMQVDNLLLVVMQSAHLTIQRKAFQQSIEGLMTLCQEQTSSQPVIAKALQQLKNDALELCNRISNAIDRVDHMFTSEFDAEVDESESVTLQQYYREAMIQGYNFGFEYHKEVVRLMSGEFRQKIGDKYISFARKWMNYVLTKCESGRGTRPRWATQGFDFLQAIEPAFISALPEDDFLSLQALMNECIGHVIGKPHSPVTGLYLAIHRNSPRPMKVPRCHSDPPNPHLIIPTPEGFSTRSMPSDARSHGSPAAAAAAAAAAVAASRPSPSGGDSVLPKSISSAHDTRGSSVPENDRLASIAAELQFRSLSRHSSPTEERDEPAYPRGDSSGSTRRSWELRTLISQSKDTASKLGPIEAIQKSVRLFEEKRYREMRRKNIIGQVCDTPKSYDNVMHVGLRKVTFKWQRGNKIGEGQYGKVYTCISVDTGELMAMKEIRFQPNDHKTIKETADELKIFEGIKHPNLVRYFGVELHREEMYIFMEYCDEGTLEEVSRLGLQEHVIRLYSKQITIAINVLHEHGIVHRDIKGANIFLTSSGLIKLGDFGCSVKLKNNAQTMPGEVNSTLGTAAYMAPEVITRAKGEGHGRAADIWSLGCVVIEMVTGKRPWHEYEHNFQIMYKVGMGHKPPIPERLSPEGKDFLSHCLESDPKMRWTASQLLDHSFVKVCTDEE
Sequence of MAPKAPK2 (P49137 whole entry): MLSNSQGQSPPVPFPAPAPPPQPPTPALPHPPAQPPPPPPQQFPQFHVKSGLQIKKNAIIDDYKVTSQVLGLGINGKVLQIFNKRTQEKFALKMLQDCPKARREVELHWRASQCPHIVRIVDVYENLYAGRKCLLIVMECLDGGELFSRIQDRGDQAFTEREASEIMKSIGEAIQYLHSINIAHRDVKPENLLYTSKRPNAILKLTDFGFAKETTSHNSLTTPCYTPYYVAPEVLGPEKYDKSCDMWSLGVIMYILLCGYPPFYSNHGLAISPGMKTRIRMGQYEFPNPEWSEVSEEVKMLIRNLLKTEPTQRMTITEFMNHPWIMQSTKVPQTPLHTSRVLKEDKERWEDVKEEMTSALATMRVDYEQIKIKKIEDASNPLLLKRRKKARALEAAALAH

C=C1CCCCCCCCCC(CO)C1=O (stereo not shown) [EP009, 2-(Hydroxymethyl)-12-methylenecyclododecanone]
JNK1/2 phosphorylation (JNK1/2): induced phosphorylation and activation
Kinase Activity (% of Control) (PIM1): 100 % of Control
Kinase Activity (% of Control) (PIM2): 100 % of Control
Kinase Activity (% of Control) (MAPKAPK2): 100 % of Control
Kinase Activity (% of Control) (ACVR1B): 96 % of Control
Kinase Activity (% of Control) (MAP3K4): 87 % of Control
Kinase Activity (% of Control) (PIK3CA): 76 % of Control
dose limiting safety in vivo [1]: 200 to 300 mg/kg
Kinase Activity (% of Control) (MARK3): 100 % of Control
Kinase Activity (% of Control) (PDGFRB): 100 % of Control
